# Experimental data taken from the supplement of paper PMC10307832.
# Legend:
# Assay in all cases: relative viability (nuclei count vs DMSO), 5 days (fraction); higher = more cells survive
# Bemcentinib + Alpelisib = compound: Nc1nc(Nc2ccc3c(c2)CC[C@@H](N2CCCC2)CC3)nn1-c1cc2c(nn1)-c1ccccc1CCC2 [Bemcentinib] + Cc1nc(NC(=O)N2CCC[C@H]2C(N)=O)sc1-c1ccnc(C(C)(C)C(F)(F)F)c1 [Alpelisib] (partner 2 µM)
# Procedure, shortened: (§1)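 For relative viability, nuclei counts in treated wells were divided by those in vehicle wells. Lung cancer cell lines had been pin-tool dosed in 1536-well plates the day after seeding and cultured for 5 days, then fixed and stained in one step (final 0.05% Triton X-100, 1% formaldehyde, 1 ug/ml Hoechst) and imaged at 4×. Doses were one drug alone or a fixed anchor-drug dose plus five library-drug doses (not always all listed) in √10 steps, and values are duplicate-plate medians.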
# Bemcentinib + Crizotinib = compound: Nc1nc(Nc2ccc3c(c2)CC[C@@H](N2CCCC2)CC3)nn1-c1cc2c(nn1)-c1ccccc1CCC2 [Bemcentinib] + C[C@@H](Oc1cc(-c2cnn(C3CCNCC3)c2)cnc1N)c1c(Cl)ccc(F)c1Cl [Crizotinib] (partner 1 µM)
# Procedure, shortened: as §1
# Bemcentinib + Foretinib = compound: Nc1nc(Nc2ccc3c(c2)CC[C@@H](N2CCCC2)CC3)nn1-c1cc2c(nn1)-c1ccccc1CCC2 [Bemcentinib] + COc1cc2c(Oc3ccc(NC(=O)C4(C(=O)Nc5ccc(F)cc5)CC4)cc3F)ccnc2cc1OCCCN1CCOCC1 [Foretinib] (partner 0.25 µM)
# Procedure, shortened: as §1
# Bemcentinib + OSI-027 = compound: Nc1nc(Nc2ccc3c(c2)CC[C@@H](N2CCCC2)CC3)nn1-c1cc2c(nn1)-c1ccccc1CCC2 [Bemcentinib] + COc1cccc2cc(-c3nc([C@H]4CC[C@H](C(=O)O)CC4)n4ncnc(N)c34)[nH]c12 [OSI-027] (partner 0.5 µM)
# Procedure, shortened: as §1
Cell Line,relative viability (Bemcentinib + Alpelisib; first compound 0.04 µM),relative viability (Bemcentinib + Alpelisib; first compound 0.1265 µM),relative viability (Bemcentinib + Alpelisib; first compound 0.4 µM),relative viability (Bemcentinib + Alpelisib; first compound 1.265 µM),relative viability (Bemcentinib + Alpelisib; first compound 4 µM),relative viability (Bemcentinib + Crizotinib; first compound 0.04 µM),relative viability (Bemcentinib + Crizotinib; first compound 0.1265 µM),relative viability (Bemcentinib + Crizotinib; first compound 0.4 µM),relative viability (Bemcentinib + Crizotinib; first compound 1.265 µM),relative viability (Bemcentinib + Crizotinib; first compound 4 µM),relative viability (Bemcentinib + Foretinib; first compound 0.04 µM),relative viability (Bemcentinib + Foretinib; first compound 0.1265 µM),relative viability (Bemcentinib + Foretinib; first compound 0.4 µM),relative viability (Bemcentinib + Foretinib; first compound 1.265 µM),relative viability (Bemcentinib + Foretinib; first compound 4 µM),relative viability (Bemcentinib + OSI-027; first compound 0.04 µM),relative viability (Bemcentinib + OSI-027; first compound 0.1265 µM),relative viability (Bemcentinib + OSI-027; first compound 0.4 µM),relative viability (Bemcentinib + OSI-027; first compound 1.265 µM),relative viability (Bemcentinib + OSI-027; first compound 4 µM)
IA-LM,0.749,0.807,0.748,0.652,0.78,0.777,0.654,0.947,0.752,0.842,1.08,1.25,0.985,1.08,1.09,,,,,
NCI-H522,,,,,,,,,,,,,,,,0.714,0.548,0.614,0.656,0.728
NCI-H1299,1.1,1.07,1.09,1.1,1.08,0.963,0.967,1.02,0.937,0.942,1.09,1.13,1.13,1.13,1.09,,,,,
NCI-H1395,1,1.26,1.12,1.03,1.29,,,,,,0.994,1.05,1.04,0.934,1.05,0.654,0.74,0.616,0.613,0.594
NCI-H1623,,,,,,,,,,,0.857,0.742,0.853,1.01,0.934,0.401,0.418,0.424,0.45,0.502
NCI-H1648,,,,,,,,,,,,,,,,0.245,0.271,0.275,0.245,0.283
NCI-H1650,,,,,,0.887,0.998,1.05,0.973,0.814,1.12,1.1,0.969,0.885,1.32,0.59,0.913,0.624,0.72,0.724
NCI-H1703,0.29,0.382,0.39,0.312,0.426,,0.687,0.723,0.717,0.627,,0.336,0.377,0.312,0.334,,,,,
NCI-H1792,0.812,0.66,0.828,0.746,0.781,1.02,1.2,1.26,0.965,0.957,,,,,,0.85,0.884,0.881,1,0.768
NCI-H1793,0.684,0.927,0.691,0.742,0.66,,,,,,0.816,0.726,0.772,,0.693,0.265,0.305,0.299,,0.282
NCI-H2342,,,,,,,,,,,1.04,1.12,1.09,1.06,1.13,0.618,0.655,0.689,0.56,0.567
SW 900,,,,,,,,,,,0.827,0.948,0.976,1.05,0.974,0.446,0.544,0.71,0.473,0.419
